From PubChem BioAssay AID1963984 (Molecular Pharmacology Branch, DTP, NCI, 2024)

Test system: 233499-124-R-J3-PDC spheroids with HUVEC/MSC, viability
Assay: Anticancer human tumor 233499-124-R-J3-PDC patient-derived colon adenocarcinoma cell line growth inhibition [PI3K]
Details: for IC50: curve of first compound; for viability, T/C: stronger effect = lower value
Excerpt: Combinatorial screen of targeted agents with the PI3K inhibitors inavolisib, alpelisib, duvelisib, and copanlisib in multi-cell type tumor spheroids
A high-throughput screen of multi-cell type tumor spheroids was designed to identify active combinations of targeted small molecules and PI3K pathway inhibitors. Complex spheroids include a stromal component modeled by human endothelial cells (HUVEC) and fibroblasts modeled by human mesenchymal stem cells (MSCs). The concentration ranges selected for each drug and investigational agent were based upon clinically achievable concentrations if the clinical Cmax of the agent was known.
Compounds. The drugs and investigational agents: inavolisib (NSC800729), alpelisib (NSC765974), duvelisib (NSC772469), copanlisib (NSC816437), ipatasertib (NSC767898), afuresertib (NSC778305), talazoparib (NSC767125), sapanisertib (NSC764658), selumetinib (NSC741078), tovorafenib (DAY101, NSC766906), vemurafenib (NSC761431), ravoxertinib (NSC781343), sotorasib (NSC818433), MRTX1133 (NSC 836407), abemaciclib (NSC 768073), palbociclib (NSC758247), venetoclax (NSC 766270), SY5609 (NSC837396), enzalutamide (NSC755605), and darolutamide (NSC825331), were obtained from the National Cancer Institute (NCI) Developmental Therapeutics Program Chemical Repository. The FDA-approved anticancer drug set is available from the NCI Developmental Therapeutics Program. […] The stock solutions were prepared in dimethyl sulfoxide (DMSO, Sigma-Aldrich, St. Louis, MO, cat. D2650) at 800-fold the tested concentration and stored at -70 degrees C prior to their use. All drugs and investigational agents were tested over a range starting from a high concentration at or near the clinical Cmax and decreasing in half-log increments. If the clinical Cmax for an agent had not been determined, the highest concentration tested was 10 microM.
Cell Culture. All cells were maintained in an incubator at 37 degrees C and 5% CO2 with 95% humidity. The PDC lines were cultured according to standard operating procedures established by the NCI PDMR (https://pdmr.cancer.gov/sops/default.htm). All PDCs were thawed and cultured in Matrigel-coated flasks prepared with a working solution of 1X Ham's F-12 nutrient mix, without supplementation (Invitrogen, Waltham, MA, cat. 11765054), 100 U/mL penicillin-streptomycin (Invitrogen, cat. 15140122), and 2.5% Matrigel (Corning Inc., Corning, NY, cat. 354248) for the first three passages. The 354836-022-R-J1-PDC, 475296-252-R-J1-PDC, and 997726-040-R-J2-PDC lines were cultured in 6A media, which includes advanced DMEM/F-12 (Thermo Fisher Scientific, cat. 12634028), 10 mM HEPES (Thermo Fisher Scientific, cat. 15630080), 1X GlutaMAX supplement (Thermo Fisher Scientific, cat. 35050061), 0.1 mg/mL primocin (InvivoGen, San Diego, CA, cat. ant-pm-2), 10% defined fetal bovine serum, heat inactivated (HyClone Laboratories Inc., Logan, UT, cat. SH30070.03HI), 50% L-WRN conditioned media (ATCC, cat. CRL-3276), 1.25 mM N-Acetyl-L-cysteine (Sigma-Aldrich, cat. A9165), 10 mM nicotinamide (Sigma-Aldrich, cat. N0636), 1X B-27 supplement (Thermo Fisher Scientific, cat. 17504044), 1X N-2 supplement (Thermo Fisher Scientific, cat. 17502048), and 10 microM Y-27632 dihydrochloride (Tocris Bioscience, Bristol, United Kingdom, cat. 1254). The 624824-186-R-J2-PDC line was cultured in 6C/Colon 1B media, which includes all 6A media components plus 50 ng/mL human EGF recombinant protein (Thermo Fisher Scientific, cat. PHG0311). […]

[1] = second compound 0.0316 µM, first compound 0.0316 µM
[2] = second compound 0.0316 µM, first compound 0.1 µM
[3] = second compound 0.0316 µM, first compound 0.316 µM
[4] = second compound 0.0316 µM, first compound 1 µM
[5] = second compound 0.0316 µM, first compound 3.16 µM
[6] = second compound 0.0316 µM, first compound 10 µM
[7] = second compound 0.1 µM, first compound 0.0316 µM
[8] = second compound 0.1 µM, first compound 0.1 µM
[9] = second compound 0.1 µM, first compound 0.316 µM
[10] = second compound 0.1 µM, first compound 1 µM
[11] = second compound 0.1 µM, first compound 3.16 µM
[12] = second compound 0.1 µM, first compound 10 µM
[13] = second compound 0.316 µM, first compound 0.0316 µM
[14] = second compound 0.316 µM, first compound 0.1 µM
[15] = second compound 0.316 µM, first compound 0.316 µM
[16] = second compound 0.316 µM, first compound 1 µM
[17] = second compound 0.316 µM, first compound 3.16 µM
[18] = second compound 0.316 µM, first compound 10 µM
[19] = second compound 1 µM, first compound 0.0316 µM
[20] = second compound 1 µM, first compound 0.1 µM
[21] = second compound 1 µM, first compound 0.316 µM
[22] = second compound 1 µM, first compound 1 µM
[23] = second compound 1 µM, first compound 3.16 µM
[24] = second compound 1 µM, first compound 10 µM
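Also: spheroids exposed to agents for seven days before readout.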
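For viability, T/C in this document: percent viability relative to DMSO vehicle control taken as 100%.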

CC1(C)CCC(CN2CCN(c3ccc(C(=O)NS(=O)(=O)c4ccc(NCC5CCOCC5)c([N+](=O)[O-])c4)c(Oc4cnc5[nH]ccc5c4)c3)CC2)=C(c2ccc(Cl)cc2)C1 + COc1c(OCCCN2CCOCC2)ccc2c3n(c(=NC(=O)c4cnc(N)nc4)nc12)CCN3
IC50 (second compound 0.00316 µM): > 10 µM
IC50 (second compound 0.01 µM): > 10 µM
IC50 (second compound 0.0316 µM): > 10 µM
IC50 (second compound 0.1 µM): 8.16 µM
IC50 (second compound 0.316 µM): < 0.0316 µM
IC50 (second compound 1 µM): < 0.0316 µM
viability, T/C (second compound 0.00316 µM, first compound 0.0316 µM): 93.8%
viability, T/C (second compound 0.00316 µM, first compound 0.1 µM): 108%
viability, T/C (second compound 0.00316 µM, first compound 0.316 µM): 113%
viability, T/C (second compound 0.00316 µM, first compound 1 µM): 101%
viability, T/C (second compound 0.00316 µM, first compound 3.16 µM): 99%
viability, T/C (second compound 0.00316 µM, first compound 10 µM): 100%
viability, T/C (second compound 0.01 µM, first compound 0.0316 µM): 96.7%
viability, T/C (second compound 0.01 µM, first compound 0.1 µM): 104%
viability, T/C (second compound 0.01 µM, first compound 0.316 µM): 92%
viability, T/C (second compound 0.01 µM, first compound 1 µM): 108%
viability, T/C (second compound 0.01 µM, first compound 3.16 µM): 101%
viability, T/C (second compound 0.01 µM, first compound 10 µM): 93.1%
viability, T/C [1]: 96.5%
viability, T/C [2]: 95%
viability, T/C [3]: 86.4%
viability, T/C [4]: 78.7%
viability, T/C [5]: 80.1%
viability, T/C [6]: 61.2%
viability, T/C [7]: 60.6%
viability, T/C [8]: 73.3%
viability, T/C [9]: 55.5%
viability, T/C [10]: 62.2%
viability, T/C [11]: 53.3%
viability, T/C [12]: 49.5%
viability, T/C [13]: 19.8%
viability, T/C [14]: 28.9%
viability, T/C [15]: 15.3%
viability, T/C [16]: 40.2%
viability, T/C [17]: 17.5%
viability, T/C [18]: 26.6%
viability, T/C [19]: 7.27%
viability, T/C [20]: 2.35%
viability, T/C [21]: 15.9%
viability, T/C [22]: 13.9%
viability, T/C [23]: 6.93%
viability, T/C [24]: 13.2%

C#Cc1c(F)ccc2cc(O)cc(-c3ncc4c(N5CC6CCC(C5)N6)nc(OCC56CCCN5CC(F)C6)nc4c3F)c12 (centres undefined) + Cc1nc(NC(=O)N2CCCC2C(N)=O)sc1-c1ccnc(C(C)(C)C(F)(F)F)c1
IC50 (second compound 0.0316 µM): > 10 µM
IC50 (second compound 0.1 µM): > 10 µM
IC50 (second compound 0.316 µM): > 10 µM
IC50 (second compound 1 µM): 5.78 µM
IC50 (second compound 3.16 µM): 0.807 µM
IC50 (second compound 10 µM): < 0.0316 µM
viability, T/C [1]: 91.5%
viability, T/C [2]: 98.2%
viability, T/C [3]: 79.3%
viability, T/C [4]: 89.2%
viability, T/C [5]: 81.2%
viability, T/C [6]: 84.5%
viability, T/C [7]: 108%
viability, T/C [8]: 107%
viability, T/C [9]: 91.4%
viability, T/C [10]: 77.7%
viability, T/C [11]: 81%
viability, T/C [12]: 104%
viability, T/C [13]: 88.7%
viability, T/C [14]: 83%
viability, T/C [15]: 83%
viability, T/C [16]: 77.1%
viability, T/C [17]: 50.9%
viability, T/C [18]: 82.4%
viability, T/C [19]: 77.1%
viability, T/C [20]: 54.9%
viability, T/C [21]: 83.4%
viability, T/C [22]: 64.4%
viability, T/C [23]: 64.3%
viability, T/C [24]: 37.7%
viability, T/C (second compound 3.16 µM, first compound 0.0316 µM): 65.3%
viability, T/C (second compound 3.16 µM, first compound 0.1 µM): 72%
viability, T/C (second compound 3.16 µM, first compound 0.316 µM): 67%
viability, T/C (second compound 3.16 µM, first compound 1 µM): 43.6%
viability, T/C (second compound 3.16 µM, first compound 3.16 µM): 33.6%
viability, T/C (second compound 3.16 µM, first compound 10 µM): 61.2%
viability, T/C (second compound 10 µM, first compound 0.0316 µM): 30.5%
viability, T/C (second compound 10 µM, first compound 0.1 µM): 39%
viability, T/C (second compound 10 µM, first compound 0.316 µM): 16.3%
viability, T/C (second compound 10 µM, first compound 1 µM): 26.1%
viability, T/C (second compound 10 µM, first compound 3.16 µM): 12.4%
viability, T/C (second compound 10 µM, first compound 10 µM): 4.04%
